Where two headings read alike, the source gives them in different places.
Columns and labels:
[1] = In vitro phase I metabolic stability in male SD rat hepatic microsomes; format: in vitro ADME; settings: male SD rat hepatic microsomes
Procedure: Phase I metabolic stability kit (purchased from HUIZHI HEYUAN BIOTECHNOLOGY (BEIJING) CO., LTD), with the following components of the product:
Positive substrate testosterone solution (10 mM): diluted with acetonitrile to prepare a 200 μM solution for later use; stop solution & internal standard (testosterone-D3): dissolved with acetonitrile to prepare a 5 ng/mL solution for later use.
• 1) all components of the kit were thawed in an ice bath and placed on ice for later use; • 2) an incubation system (taking 200 μL system as an example) was prepared:
• 3) 160 μL of pre-incubation solution B was added into the centrifuge tube containing 40 μL of pre-incubation solution A, uniform mixing was performed by pipetting three times, and the resulting mixture was immediately placed in a water bath at 37° C. for incubation and timing was started; • 4) at predetermined incubation time points (0, 5, 10, 15, 30, 45, 60 minutes), the incubation solution was quantitatively taken out, and 200 μL of stop solution (5 ng/mL testosterone-D3 in acetonitrile, pre-chilled at 4° C.) was added to terminate the reaction (stop solution volume: incubation system volume=1:1). Experimental samples were prepared in triplicate at each time point.
To verify the validity of the experiment, a positive control group was established concurrently in the whole experiment to evaluate whether the incubation system functioned properly, with the preparation method as follows: the compound to be tested was replaced with the positive substrate testosterone (200 μM in acetonitrile) from the phase I metabolic stability kit, and the other components of the incubation system and experimental method were the same as those of the experimental group.
The ratio of the chromatographic peak area of the compound to be tested to the chromatographic peak area of the testosterone-D3 (internal standard) was used as the calculated data. By taking the peak area ratio at time zero of the test compound as 100%, the remaining percentages were calculated by comparing the peak area ratio at each time point with the peak area ratio at time zero, and the natural logarithms of the remaining percentages of the substrate at each time point are then subjected to linear regression against the incubation times to obtain the slope k. Therefore, the in vitro metabolic half-life (T1/2) and intrinsic clearance (CLint) were calculated using the following formulas: […]

[2] = Pharmacokinetic analysis of tail vein administration in mice; settings: female, ICR, mouse, 5 mg/kg
Procedure: Female ICR mice (body weight: 20 g to 22 g) were purchased from BEIJING HFK BIOSCIENCE CO., LTD.
The animals were sacrificed at blood collection time points (5 min, 1 h and 8 h) for brain tissue collection, and the collected brain tissues were stored at −80° C. for later testing.
100 μL of plasma sample, 10 μL of internal standard solution (100 ng/mL testosterone D-3 solution), and 310 μL of acetonitrile were accurately measured, uniformly mixed by vortexing, and centrifuged (14000 rpm, 4° C.), and a resulting supernatant was taken to obtain the plasma sample.
About 100 mg of brain tissue sample was taken, and accurately weighed, 100 μL of water and 400 μL acetonitrile were accurately added thereto, and a resulting mixture was subjected to homogenization. 100 μL of brain tissue homogenate, 10 μL of internal standard solution (100 ng/mL testosterone D-3 solution), and 310 μL of acetonitrile were accurately measured, uniformly mixed by vortexing, and centrifuged (14000 rpm, 4° C.), and a resulting supernatant was taken to obtain the brain tissue sample.
100 μL of blank plasma sample, 10 μL of mixed standard solution, 10 μL of internal standard solution (100 ng/mL testosterone D-3 solution), and 300 μL of acetonitrile were accurately measured, uniformly mixed by vortexing, and centrifuged (14000 rpm, 4° C.), and a resulting supernatant was taken to obtain the plasma matrix standard solution.
About 100 mg of blank brain tissue sample was taken, and accurately weighed, 100 μL of water and 400 μL acetonitrile were accurately added thereto, and a resulting mixture was subjected to homogenization using a homogenizer. 100 μL of brain tissue homogenate, 10 μL of mixed standard solution, 10 μL of internal standard solution (100 ng/mL testosterone D-3 solution) and 300 μL of acetonitrile were accurately measured, uniformly mixed by vortexing, and centrifuged (14000 rpm, 4° C.), and a resulting supernatant was taken to obtain the Brain tissue matrix standard solution.
The UPLC-MS/MS method with testosterone D-3 as the internal standard was used to perform analysis and determination by the standard curve method.

[3] = Pharmacokinetic analysis of oral administration to male rats; format: in vivo; settings: oral gavage 12 mg/kg; for Blood drug concentration: individual rats 1-7; for concentration at 0.5 h / concentration at 1 h / concentration at 2 h / concentration at 3 h / concentration at 4 h / concentration at 5 h / concentration at 6 h / concentration at 8 h / concentration at 10 h / concentration at 12 h / concentration at 18 h / concentration at 24 h: male, SD, rat, plasma, po, 12 mg/kg
Source text: Male SD rats (body weight: 230 g to 250 g) were purchased from BEIJING HFK BIOSCIENCE CO., LTD.

For CC(=O)[C@H]1CC[C@H]2[C@@H]3CC[C@H]4C[C@H](O)CC[C@]4(C)[C@H]3CC[C@]12C [Allopregnanolone, 5α-pregnan-3α-ol-20-one, reference compound], the half-life ([1]; liver microsomes, NADPH system, 37° C., read-out: T1/2 (in vitro metabolic half-life)) was 2.17 min, the microsomal CLint ([1]; liver microsomes, read-out: intrinsic clearance) was 639 µL/min/mg and the “In vitro CLint” value ([1]; 37° C.) was 639.28 μL/min/mg protein. For the same molecule, the “k (slope of ln remaining percentage against incubation time)” value ([1]; 37° C.) was −0.3196, the concentration at 5 min ([2]; brain, intravenous) was 1070 ng/g and the concentration at 1 h ([2]; brain, intravenous) was 47.3 ng/g. It also gave a concentration at 8 h ([2]; brain, intravenous) of 14.4 ng/g, a Kp at 5 min ([2]; brain/plasma, intravenous) of 1.28 and a Kp at 1 h ([2]; brain/plasma, intravenous) of 2.71. The clearance ([2]; plasma, iv) was 218 mL/min/kg, the half-life ([2]; plasma, iv) was 40.8 min and the Blood drug concentration ([3]; male SD rats, 0.5 h) was 0 ng/mL. The “level in the plasma at all time points” value ([3]; male SD rats, 30 min to 24 h) was “undetectable”, the Blood drug concentration ([3]; male SD rats, 1 h) was 0 ng/mL and the Blood drug concentration ([3]; male SD rats, 2 h) was 0 ng/mL. It also gave a Blood drug concentration ([3]; male SD rats, 3 h) of 0 ng/mL, a Blood drug concentration ([3]; male SD rats, 4 h) of 0 ng/mL and a Blood drug concentration ([3]; male SD rats, 5 h) of 0 ng/mL. It also gave a Blood drug concentration ([3]; male SD rats, 6 h) of 0 ng/mL, a Blood drug concentration ([3]; male SD rats, 8 h) of 0 ng/mL and a Blood drug concentration ([3]; male SD rats, 10 h) of 0 ng/mL. For the same molecule, the Blood drug concentration ([3]; male SD rats, 12 h) was 0 ng/mL, the Blood drug concentration ([3]; male SD rats, 18 h) was 0 ng/mL and the Blood drug concentration ([3]; male SD rats, 24 h) was 0 ng/mL. For the same molecule, the concentration at 0.5 h ([3]; 0.5 h, individual rats 1-7, read-out: Blood drug concentration) was 0 ng/mL, the concentration at 0.5 h ([3]; 0.5 h, mean of 7 rats, read-out: Blood drug concentration, Mean value) was 0 ng/mL and the concentration at 1 h ([3]; 1 h, individual rats 1-7, read-out: Blood drug concentration) was 0 ng/mL. For the same molecule, the concentration at 1 h ([3]; 1 h, mean of 7 rats, read-out: Blood drug concentration, Mean value) was 0 ng/mL, the concentration at 2 h ([3]; 2 h, individual rats 1-7, read-out: Blood drug concentration) was 0 ng/mL and the concentration at 2 h ([3]; 2 h, mean of 7 rats, read-out: Blood drug concentration, Mean value) was 0 ng/mL. For the same molecule, the concentration at 3 h ([3]; 3 h, individual rats 1-7, read-out: Blood drug concentration) was 0 ng/mL, the concentration at 3 h ([3]; 3 h, mean of 7 rats, read-out: Blood drug concentration, Mean value) was 0 ng/mL and the concentration at 4 h ([3]; 4 h, individual rats 1-7, read-out: Blood drug concentration) was 0 ng/mL. For the same molecule, the concentration at 4 h ([3]; 4 h, mean of 7 rats, read-out: Blood drug concentration, Mean value) was 0 ng/mL, the concentration at 5 h ([3]; 5 h, individual rats 1-7, read-out: Blood drug concentration) was 0 ng/mL and the concentration at 5 h ([3]; 5 h, mean of 7 rats, read-out: Blood drug concentration, Mean value) was 0 ng/mL. It also gave a concentration at 6 h ([3]; 6 h, individual rats 1-7, read-out: Blood drug concentration) of 0 ng/mL, a concentration at 6 h ([3]; 6 h, mean of 7 rats, read-out: Blood drug concentration, Mean value) of 0 ng/mL and a concentration at 8 h ([3]; 8 h, individual rats 1-7, read-out: Blood drug concentration) of 0 ng/mL. For the same molecule, the concentration at 8 h ([3]; 8 h, mean of 7 rats, read-out: Blood drug concentration, Mean value) was 0 ng/mL, the concentration at 10 h ([3]; 10 h, individual rats 1-7, read-out: Blood drug concentration) was 0 ng/mL and the concentration at 10 h ([3]; 10 h, mean of 7 rats, read-out: Blood drug concentration, Mean value) was 0 ng/mL. The concentration at 12 h ([3]; 12 h, individual rats 1-7, read-out: Blood drug concentration) was 0 ng/mL, the concentration at 12 h ([3]; 12 h, mean of 7 rats, read-out: Blood drug concentration, Mean value) was 0 ng/mL and the concentration at 18 h ([3]; 18 h, individual rats 1-7, read-out: Blood drug concentration) was 0 ng/mL. It also gave a concentration at 18 h ([3]; 18 h, mean of 7 rats, read-out: Blood drug concentration, Mean value) of 0 ng/mL, a concentration at 24 h ([3]; 24 h, individual rats 1-7, read-out: Blood drug concentration) of 0 ng/mL and a concentration at 24 h ([3]; 24 h, mean of 7 rats, read-out: Blood drug concentration, Mean value) of 0 ng/mL.
